From patent US8486996B2, “Aroylfuranes and aroylthiophenes” (Basilea Pharmaceutica AG, priority 2006, dated 2013) come the findings set out here.

Like-named read-outs stand apart in the source and are kept apart here. Some results are limits rather than exact numbers.

Data set [1] deals with tumor cells. Briefly: Hoechst 33342 nuclear staining (48 h read-out). It is filed as cell-based. In outline: (§1)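 Adherent cells pre-spread 24 h before dosing, suspension cells dosed at seeding; compounds at 0.001 μM-10 μM final, 48 h at culture conditions. Hoechst 33342 (2-5 μg/ml) added for 30 min, then fluorescence microscopy scoring of apoptotic nuclear fraction and apoptosis-specific morphology, reported as scores A-D.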

Data set [2] can be described thus: Hoechst 33342 nuclear staining (48 h read-out). It is filed as cell-based. The gist of the method: as §1
In another data set the test system is HeLa. Nature of the data set: Colony Forming Units (read-out 6 days), HeLa. Type of data set: cell-based, human. The following applies: Homo sapiens, 144 h, colonies containing more than 30 cells, read-out: Colony Forming Units, score based on IC50, HeLa. In outline:
(§2)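 Cells seeded at 100-150 per well and left to attach for 48 h before compound addition (0.001 μM-3 μM; DMSO controls). Incubated 5-7 days under culture conditions; colonies of more than 30 cells counted by microscope.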

Data set [3] deals with tumor cells. Briefly: MTS proliferation assay (72 h read-out). It is filed as cell-based. In outline:
(§3)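 Tumour cells (1.5×10^3–10^4 per well) were seeded 24 h before compound addition, then exposed to 0.001–10 μM final compound for 72 h under culture conditions. MTS reagent was added for a further 3 h, absorbance was read at 492 nm, and results were binned into scores A–D.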
Background: Tetrazolium dyes change colour on reduction, which living cells bring about.

Data set [4] is described as follows: MTS proliferation assay (72 h read-out). It is filed as cell-based. The note with it: Homo sapiens, MRC5 cells. In outline: as §3
The subject of the next data set is H460. Nature of the data set: Colony Forming Units (read-out 6 days), H460. Type of data set: cell-based, human. The note with it: Homo sapiens, NCI-H460, 144 h, colonies containing more than 30 cells, read-out: Colony Forming Units, score based on IC50, H460. In outline:
as §2

The test system of data set [5] is tumor cells. Briefly: Mitochondrial membrane potential, JC-1 (read-out 48 h). The following applies: JC-1, 48 h. Type of data set: cell-based. In outline:
(§4)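 Tumor cells were treated with test compounds (adherent cells after 24 h of attachment, suspension cells immediately), medium holding up to 5% DMSO. After 48 h, JC-1 (2-5 μg/ml in added medium) was applied for 30 min. Fluorescence microscopy (FITC/TRITC filters) scored the fraction of cells with dissipated mitochondrial membrane potential as categories A-D.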

Test in data set [6]: as above
It is filed as cell-based. The following applies: PBL, JC-1, 48 h. The gist of the method: as §4

The mark [7] stands for this setting: Homo sapiens, HeLa cells, read-out: Hoechst 33342 nuclear staining EC50, HeLa.
Where [8] appears, read: Homo sapiens, Jurkat cells, read-out: Hoechst 33342 nuclear staining EC50, Jurkat.
The mark [9] stands for this setting: Jily cells, read-out: Hoechst 33342 nuclear staining EC50, Jily.
Setting [10] is: Homo sapiens, MRC5 cells, read-out: Hoechst 33342 nuclear staining EC50, MRC5.
Where [11] appears, read: Homo sapiens, HT-1080, HT1080 cells, read-out: MTS proliferation assay IC50, HT1080.
The mark [12] stands for this setting: Homo sapiens, HeLa cells, read-out: MTS proliferation assay IC50, HeLa.
The mark [13] stands for this setting: Homo sapiens, Jurkat cells, read-out: MTS proliferation assay IC50, Jurkat.
Where [14] appears, read: Jily cells, read-out: MTS proliferation assay IC50, Jily.
Where [15] appears, read: Homo sapiens, HeLa cells, read-out: Mitochondrial membrane potential (read-out 48 h) HeLa.
The mark [16] stands for this setting: Homo sapiens, Jurkat cells, read-out: Mitochondrial membrane potential (read-out 48 h) Jurkat.
Where [17] appears, read: Homo sapiens, MCF7 cells, read-out: Mitochondrial membrane potential (read-out 48 h) MCF7.
Setting [18] is: Jily cells, read-out: Mitochondrial membrane potential (read-out 48 h) Jily.
Where [19] appears, read: PBL, read-out: Hoechst 33342 nuclear staining EC50, PBL.

With `CCOc1ccc(OC)cc1C(=O)c1oc2ccc(Cl)cc2c1N` [Example 12], the melting point (as a rule, the temperature of the solid-liquid transition) is 124 to 125 °C. For the same compound, the EC50 in the data set on tumor cells [1] (setting [7]) is < 10 nM. In addition, the EC50 in the data set on tumor cells [1] (setting [8]) is < 10 nM. In the data set on tumor cells [1] (setting [9]), the EC50 was < 10 nM. Moreover, the EC50 in data set [2] (setting [10]) fell in the range of 100 to 1000 nM. Also, in the data set on HeLa, the IC50 fell in the range of 10 to 100 nM. Also, in the data set with tumor cells [3] (setting [11]), the IC50 was < 10 nM. Moreover, in the data set with tumor cells [3] (setting [12]), the IC50 fell in the range of 10 to 100 nM. Further, in the data set on tumor cells [3] (setting [13]), the IC50 is < 10 nM. In the data set on tumor cells [3] (setting [14]), the IC50 is < 10 nM. Further, the IC50 in [4] was < 10 nM. Moreover, the IC50 with H460 was < 10 nM. For the same compound, the EC50 with tumor cells [5] (setting [15]) was 10 to 100 nM. The EC50 in the data set with tumor cells [5] (setting [16]) was < 10 nM. Moreover, in the data set on tumor cells [5] (setting [17]), the EC50 is 10 to 100 nM. For the same compound, the EC50 in the data set on tumor cells [5] (setting [18]) was < 10 nM. Also, in data set [6], the EC50 is > 1000 nM.

The compound `CCOc1cc(OC)c(Br)cc1C(=O)c1oc2ccc(Cl)cc2c1N` [Example 23] displayed a melting point of 132 to 133 °C. The EC50 with tumor cells [1] (setting [7]) is > 1000 nM. Moreover, the EC50 in the data set with tumor cells [1] (setting [8]) lay in the range of 100 to 1000 nM. The EC50 with tumor cells [1] (setting [9]) lay in the range of 100 to 1000 nM. In data set [2] (setting [10]), the EC50 is > 1000 nM. Further, in data set [2] (setting [19]), the EC50 was > 1000 nM. Also, in the data set with tumor cells [3] (setting [11]), the IC50 is > 1000 nM. In addition, the IC50 with tumor cells [3] (setting [12]) was > 1000 nM. In the data set on tumor cells [3] (setting [13]), the IC50 was 100 to 1000 nM. Further, in the data set on tumor cells [3] (setting [14]), the IC50 fell in the range of 100 to 1000 nM. The IC50 in [4] is > 1000 nM. For the same compound, the EC50 with tumor cells [5] (setting [15]) is > 1000 nM. Moreover, the EC50 in the data set with tumor cells [5] (setting [16]) lay within 100 to 1000 nM. Further, the EC50 in the data set with tumor cells [5] (setting [17]) was > 1000 nM. Besides, the EC50 in the data set with tumor cells [5] (setting [18]) is > 1000 nM. Further, the EC50 in [6] was > 1000 nM.

For the compound `CCOc1ccccc1C(=O)c1oc2cnc(C)cc2c1N` [Example 30], the melting point was 168 °C. Further, the EC50 in the data set on tumor cells [1] (setting [7]) was in the range of 100 to 1000 nM. Also, the EC50 in the data set with tumor cells [1] (setting [8]) fell in the range of 100 to 1000 nM. Besides, the EC50 in the data set with tumor cells [1] (setting [9]) was in the range of 100 to 1000 nM. Further, the EC50 in [2] (setting [10]) was > 1000 nM. Further, in data set [2] (setting [19]), the EC50 is > 1000 nM. Further, the IC50 in the data set on tumor cells [3] (setting [11]) lay in the range of 100 to 1000 nM. In addition, the IC50 in the data set with tumor cells [3] (setting [12]) lay in the range of 100 to 1000 nM. Besides, the IC50 in the data set on tumor cells [3] (setting [13]) was 100 to 1000 nM. Besides, the IC50 with tumor cells [3] (setting [14]) was in the range of 100 to 1000 nM. The IC50 in data set [4] is > 1000 nM. For the same compound, the EC50 in the data set with tumor cells [5] (setting [15]) lay within 100 to 1000 nM. The EC50 in the data set on tumor cells [5] (setting [16]) was in the range of 100 to 1000 nM. Also, in the data set with tumor cells [5] (setting [17]), the EC50 was > 1000 nM. For the same compound, the EC50 in the data set on tumor cells [5] (setting [18]) is 100 to 1000 nM. In addition, the EC50 in data set [6] is > 1000 nM.

`CC(C)Oc1ccccc1C(=O)c1oc2ccc(Cl)cc2c1N` [Example 9] registered a melting point of 110 °C. The EC50 in the data set with tumor cells [1] (setting [7]) lay in the range of 100 to 1000 nM. Besides, the EC50 with tumor cells [1] (setting [8]) fell in the range of 10 to 100 nM. The EC50 in the data set with tumor cells [1] (setting [9]) lay in the range of 100 to 1000 nM. Besides, in data set [2] (setting [10]), the EC50 lay within 100 to 1000 nM. The IC50 in the data set on HeLa was in the range of 10 to 100 nM. In addition, the IC50 in the data set on tumor cells [3] (setting [11]) lay in the range of 10 to 100 nM. Besides, in the data set with tumor cells [3] (setting [12]), the IC50 is 100 to 1000 nM. In addition, in the data set with tumor cells [3] (setting [13]), the IC50 fell in the range of 10 to 100 nM. Also, the IC50 in the data set with tumor cells [3] (setting [14]) lay within 10 to 100 nM. In [4], the IC50 was in the range of 100 to 1000 nM. Further, in the data set with H460, the IC50 lay in the range of 10 to 100 nM. Also, the EC50 in the data set with tumor cells [5] (setting [15]) is 100 to 1000 nM. The EC50 in the data set with tumor cells [5] (setting [16]) lay within 10 to 100 nM. For the same compound, the EC50 in the data set on tumor cells [5] (setting [17]) fell in the range of 100 to 1000 nM. In addition, the EC50 with tumor cells [5] (setting [18]) is 100 to 1000 nM. Further, the EC50 in [6] was > 1000 nM.

With `COc1ccc(OC(C)C)c(C(=O)c2oc3ccc(Cl)cc3c2N)c1` [Example 15], the melting point fell in the range of 131 to 132 °C. Moreover, in the data set with tumor cells [1] (setting [7]), the EC50 lay in the range of 100 to 1000 nM. Also, the EC50 in the data set on tumor cells [1] (setting [8]) was in the range of 10 to 100 nM. In addition, in the data set on tumor cells [1] (setting [9]), the EC50 lay within 10 to 100 nM. In addition, in data set [2] (setting [10]), the EC50 lay within 100 to 1000 nM. For the same compound, the IC50 in the data set with HeLa is 10 to 100 nM. In addition, the IC50 in the data set on tumor cells [3] (setting [11]) fell in the range of 10 to 100 nM. Besides, the IC50 in the data set with tumor cells [3] (setting [12]) lay in the range of 100 to 1000 nM. Further, the IC50 with tumor cells [3] (setting [13]) lay in the range of 10 to 100 nM. Besides, the IC50 in the data set on tumor cells [3] (setting [14]) is 10 to 100 nM. The IC50 in [4] lay within 10 to 100 nM. Besides, the IC50 with H460 lay within 10 to 100 nM. Besides, in the data set on tumor cells [5] (setting [15]), the EC50 was 100 to 1000 nM. Moreover, in the data set with tumor cells [5] (setting [16]), the EC50 was 10 to 100 nM. Also, the EC50 in the data set with tumor cells [5] (setting [17]) was in the range of 100 to 1000 nM. Further, the EC50 with tumor cells [5] (setting [18]) lay within 100 to 1000 nM. Further, the EC50 in [6] was > 1000 nM.
